The values below come from patent US10369131B2, “Ultrapure tetrahydrocannabinol-11-oic acids” (Corbus Pharmaceuticals, Inc., priority 2013, dated 2019).

The test system of data set [1] is female CD-1 mice. In words: Ring immobility (catalepsy) test. As to the method: The cataleptic response was measured using the ring test described by Pertwee (Pertwee R G, The Ring Test. A Quantitative Method of Assessing the Cataleptic Effect of Cannabis in Mice, Br. J. Pharmacol. 46:753-763 (1972)). Mice were placed on a horizontal wire ring 5.5 cm in diameter attached to a 16 cm vertical rod. The hind paws and fore paws were placed at opposite sides of the ring. The ambient temperature was maintained at 30° C. and the environment was free of auditory stimuli and bright lights. The response was calculated as the fraction of time the mouse was immobile over a five (5) minute test period.
A dose response was conducted for ultrapure AJA to oral doses of 0.05 to 56 mg/kg.
Compounds were administered at a volume of […] via oral gavage.
Female CD-1 mice (20-25 g), obtained from Charles River (Raleigh, N.C.), were used for assessment in hot plate nociception, rectal temperature, and ring immobility assays. Separate mice were used for testing each dose of each compound in this battery of procedures. The mice had free access to food and water when in their home cages. All animals were kept in a temperature-controlled (20-22° C.) environment with a 12-hour light-dark cycle (lights on at 7 a.m.).
Each mouse was tested in a battery of three tests, in which cannabinoid CB1 agonists produce in vivo effects in mice (Martin et al., 1991): antinociception (hot plate assay), decreased rectal temperature and ring immobility. Prior to administration of the test compound, rectal temperature and baseline latency in the hot plate test were measured in the mice. The latter procedure involved placing the mouse on a heated surface (mouse cold/hot plate analgesia apparatus; Stoelting, Wood Dale, Ill.) at a setting of 55° C. Time until the mouse lifts or licks a paw was measured, whereupon the mouse was removed from the apparatus. […] After measurement of baseline temperature and hot plate latency, mice were administered vehicle or drug via oral gavage. […] Subsequently, the mice were placed on a 5.5 cm ring attached at a height of 16 cm to a ring stand, and the amount of time the animals remained motionless during a 5 min period was recorded. In addition, the number of times the mouse fell or jumped off the ring was recorded. If the mouse fell off the ring more than 5 times, the test was terminated.
Rectal temperature values were expressed as the difference between control temperature (before injection) and temperature following drug administration (Δ° C.). Antinociception was expressed as the percent maximum possible effect (MPE) using a 30-s maximum test latency as follows: [(test−control)/(30−control)]×100. During assessment for catalepsy, the total amount of time (in seconds) that the mouse remained motionless on the ring apparatus (except for breathing and whisker movement) was measured and was used as an indication of catalepsy-like behavior. This value was divided by 300 s and multiplied by 100 to obtain a percent immobility. If the mouse fell off the ring more than 5 times, the test was terminated and ring immobility data for the mouse were not included in analysis. Separate between-subjects ANOVAs were used to analyze each measure. Significant differences from control (vehicle) were further analyzed with Tukey post hoc tests (α=0.05) as necessary.

The subject of data set [2] is HL-60 cells. Put plainly: PGJ synthesis in HL-60 cells (ELISA). The class given is cell-based. Conditions: TNFα 10 nM, with CB2 or CB1 antagonist, N=4. As to the method: The CB2 antagonist SR144528 reduced ultrapure AJA-induced PGJ synthesis in HL60 immune system cells at low concentrations (squares). […] DMSO control (open circles). Treatments of cells was carried out in 48 well plates with 20,000 cells/500 μl RPMI/FCS media/well. Cells were incubated for 20 hrs at 37° C. and 5% CO2. Media was changed to 500 μl of serum free RPMI and TNFα (10 nM) added. […] N=4.

For data set [3], the target named is hCB2 receptor (Homo sapiens, UniProt P34972).
Chain of hCB2 receptor (P34972 whole entry): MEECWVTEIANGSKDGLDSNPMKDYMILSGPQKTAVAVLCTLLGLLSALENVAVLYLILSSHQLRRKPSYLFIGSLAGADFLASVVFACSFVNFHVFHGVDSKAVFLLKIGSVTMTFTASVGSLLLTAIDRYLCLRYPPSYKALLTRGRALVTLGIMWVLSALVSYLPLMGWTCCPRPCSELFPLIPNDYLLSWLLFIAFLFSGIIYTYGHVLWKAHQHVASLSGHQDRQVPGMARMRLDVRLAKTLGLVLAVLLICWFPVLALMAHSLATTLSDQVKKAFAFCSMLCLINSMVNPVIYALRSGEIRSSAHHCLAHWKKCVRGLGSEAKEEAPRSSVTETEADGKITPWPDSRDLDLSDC
Description: (§1) When the CB1 or CB2 receptor is activated by an agonist, the affinity of the G protein alpha subunit increases with respect to GTP vs. GDP. As a consequence, GDP is displaced from the G protein and GTP or GTPγS binds. If a radioactive label, such as [^35S], is attached to the GTPγS molecule, then the formation of the G protein/[^35S]GTPγS complex can be directly measured using liquid scintillation spectrophotometry.
(§2) The CB1 and CB2 receptor assays involve membrane preparations purchased from Perkin Elmer (Waltham, Mass.) isolated from a HEK-293 expression system. G-protein coupled signal transduction (GTP-γ-[35S]) assays of test compounds were conducted in an incubation mixture consisting of a test compound (250 nM-1 mM), GDP (20 μM), GTP-γ-[35S] (100 pM), and the hCB1 and hCB2 membrane preparations (0.4 pM) in a total volume of 0.4 mL of assay buffer (50 mM TRIS-HCl, pH 7.4, 1 mM EDTA, 100 mM NaCl, 5 mM MgCl2, 0.5% (w/v) BSA). Nonspecific binding was determined in the presence of 100 μM unlabeled GTP-γ-S, and basal binding was determined in the absence of drug. Duplicate samples were incubated for 1 h at 30° C., and the bound complex was filtered from the reaction mixture as described previously and counted in a liquid scintillation counter. Specific binding was calculated by subtracting nonspecific binding from total binding and dividing by the total basal binding minus nonspecific binding. Data were plotted and analyzed with GraphPad Prism (GraphPad Software, Inc., San Diego, Calif.).
The target in data set [4] is T1, CB1 receptor (Homo sapiens, UniProt P21554). Put plainly: biochemical.
T1 sequence (P21554 whole entry): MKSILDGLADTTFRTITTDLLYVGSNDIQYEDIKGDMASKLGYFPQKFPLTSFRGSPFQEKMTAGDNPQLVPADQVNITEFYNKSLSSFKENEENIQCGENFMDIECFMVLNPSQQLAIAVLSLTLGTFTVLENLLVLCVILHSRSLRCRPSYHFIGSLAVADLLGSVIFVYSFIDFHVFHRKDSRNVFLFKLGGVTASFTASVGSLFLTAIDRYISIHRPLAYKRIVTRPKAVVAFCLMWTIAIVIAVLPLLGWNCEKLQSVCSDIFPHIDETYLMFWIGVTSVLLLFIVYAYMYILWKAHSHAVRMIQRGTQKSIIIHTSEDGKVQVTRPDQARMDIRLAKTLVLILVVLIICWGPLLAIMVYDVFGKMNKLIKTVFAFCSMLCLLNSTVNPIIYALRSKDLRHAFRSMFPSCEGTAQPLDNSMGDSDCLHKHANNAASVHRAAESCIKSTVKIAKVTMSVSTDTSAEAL
Description: as §1, §2
In data set [5] the target is T1, CB1 receptor. Put plainly: CB receptor radioligand binding assay, human CB1. More on the design: expressed in transfected cells; host or cells: HEK-293T. As to the method:
Membrane preparation—HEK-293T cells were cultured according to ATCC (Manassas, Va.) guidelines and transfected with human CB1 cDNA (Genbank X54937) or CB2 cDNA (Genbank X74328), operably linked to the SV40 promoter, using Polyfect (Qiagen, Valencia, Calif.) or Fugene (Roche, Nutley, N.J.) according to manufacturer's instructions. 48 h after transfection, cells were harvested in ice cold membrane buffer (20 mM HEPES, 6 mM MgCl2, 1 mM EDTA, pH 7.2) using a cell scraper. Cells were transferred to a nitrogen cavitation chamber and a pressure of […] was applied for 30 min. The pressure was released and the cell debris was collected and centrifuged at 1000 g at 4° C. for 10 min. The supernatant was collected and the spin was repeated until the supernatant was free of precipitate. […] The membrane concentration was determined using a BioRad (Hercules, Calif.) protein assay dye reagent according to manufacturer's instructions. […]
Membranes were incubated for 2 hr at room temperature, then filtered onto a presoaked (with 0.1% polyethylenimine for 1 to 2 hr) 96 well GF/B filterplate (Packard Bioscience, Shelton, Conn.) and washed with […] ice cold wash buffer (25 mM HEPES, 1 mM CaCl2, 5 mM MgCl2, 0.25M NaCl) using a Filtermate 196 Harvester (Packard Instruments, Downers Grove, Ill.). […] Plates were counted on a Topcount NXT (Packard, Shelton, Conn.). […]

In general, EC50 refers to the concentration needed to bring the measured effect to its halfway point. High values mean lower potency in that assay, low ones higher potency in that assay. Usually Ki stands for the dissociation constant of the complex between target and ligand, obtained from inhibition or displacement. A low value points to a stronger hold on the target. Take `CCCCCCC(C)(C)c1cc(O)c2c(c1)OC(C)(C)[C@@H]1CC=C(C(=O)O)C[C@@H]21` [JBT-101, (6aR,10aR)-3-(1′,1′-dimethylheptyl)-Δ8-tetrahydro-cannabinol-9-carboxylic acid]: the “doses required to see catalepsy compared with AJA (3a) from U.S. Pat. No. 5,338,753” value in data set [1] (dose response 0.05 to 56 mg/kg oral) is “required much higher doses”. The “percent ring immobility in the catalepsy test” value in data set [1] (lower oral doses, up to 10 mg/kg) is given as “did not affect this measure”; in data set [1] (oral 30 and 56 mg/kg, vs vehicle, p<0.05) it was “significantly increased percent ring immobility”. Also, the “doses at which active in the ring test” value in data set [1] (oral in oil, FIG. 14) is ≥ 30 mg/kg. Also, the “stimulation of PGJ in HL-60 cells” value in data set [2] was “CB2 specificity”. The “potency in the GTP-gamma-S assay better in the CB2 assay than in the CB1 assay” value in data set [3] (FIG. 13) is recorded as ~10 ×. For the same compound, the “difference in potency for activation of CB2 versus CB1 receptors” value in data set [3] (GTP-γ-35S EC50 CB1 vs CB2) amounted to 9 fold. In addition, the EC50 in data set [4] (hCB1 EC50 Mean (±SEM), GTP-γ-35S turnover, mean of 4 repetitions) worked out at 9.21 ± 2.04 µM; in data set [4] (hCB1 EC50 Rep 1, GTP-γ-35S turnover, replicate 1), 13.7 µM; in data set [4] (hCB1 EC50 Rep 2, GTP-γ-35S turnover, replicate 2), 5.83 µM; in data set [4] (hCB1 EC50 Rep 3, GTP-γ-35S turnover, replicate 3), 11.6 µM; in data set [4] (hCB1 EC50 Rep 4, GTP-γ-35S turnover, replicate 4) it was 5.66 µM. For the same compound, the Ki in data set [5] is 0.628 ± 0.006 µM.
